From the NIST ThermoML archive (doi:10.1021/acs.jced.6b00430)

Assay: xn = mol fraction of the nth substance listed
Settings: 100 kPa, Liquid; for electrical conductivity: Alternating current cell with electrodes; for viscosity: Capillary tube (Ostwald / Ubbelohde) method; for mass density: Vibrating tube method

O=[PH](O)O [phosphonic acid] + O
Settings	electrical conductivity, 298.15 K [S/m]	electrical conductivity, 308.15 K [S/m]	electrical conductivity, 318.15 K [S/m]	mass density, 298.15 K [kg/m3]	mass density, 308.15 K [kg/m3]	viscosity, 298.15 K [mPa·s]	viscosity, 308.15 K [mPa·s]	viscosity, 318.15 K [mPa·s]
x1 = 0.0122	7.43	7.89	8.18	1022.04	1018.53	0.962	0.782	0.636
x1 = 0.0215	10.4	11.3	11.8	1039.69	1035.86	1.05	0.852	0.689
x1 = 0.0299	13.4	14.3	15	1055.02	1050.95	1.17	0.94	0.754
x1 = 0.0403	16.9	18.4	19.2	1073.24	1068.89	–	–	–
x1 = 0.0451	–	–	–	1081.91	1077.48	–	–	–
x1 = 0.0484	18.5	20	20.9	1087.03	1082.48	–	–	–
x1 = 0.0541	20	21.3	22.4	1096.6	1091.91	–	–	–
x1 = 0.0682	22.1	23.9	25.4	1119.23	1114.22	–	–	–
x1 = 0.0704	22.4	24.2	25.8	1122.59	1117.57	1.64	1.31	1.06
x1 = 0.0799	23.9	25.5	27.3	1137.16	1131.9	–	–	–
x1 = 0.0832	–	–	–	1141.9	1136.63	–	–	–
x1 = 0.1011	25.9	27.4	29.7	1167.81	1162.2	2.06	1.65	1.32
x1 = 0.1335	26	28.6	31.3	1210.62	1204.48	2.6	2.08	–
x1 = 0.1689	25.7	28.5	31.5	1252.12	1245.45	–	–	–
x1 = 0.1909	25.2	28.5	31.2	1275.45	1268.54	–	–	–
x1 = 0.197	25	28	30.8	1281.23	1274.31	–	–	–
x1 = 0.2154	24.5	28	30	1299.73	1292.62	4.24	3.32	–
x1 = 0.2524	23.1	25.8	28.8	1332.1	1324.67	5.19	4.12	–
x1 = 0.292	20.7	23.9	27.2	1363.42	1355.74	6.26	4.94	–
x1 = 0.3959	15.4	18.5	21.1	1434.35	1426.18	–	–	–
